# Biological target: TNFα trimer (Homo sapiens, UniProt P01375)
# Experiment: TNFα FP Competitive Binding Assay
# Details: FP binding assay; 20 nM TNFα trimer, 1 nM OregonGreen488 probe; read-out: TNF IC50
# Method in brief: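 Fluorescence polarization competition: 20 nM TNFα trimer with 1 nM fluorescein-labelled probe in HEPES/NaCl/EDTA/Triton X-100 buffer, compound in 12-point 1:3 dilutions (final top 338 μM or 100 μM). Incubated 18-24 h, background-subtracted mP read, variable-slope dose-response fitting.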
# Sequence of TNFα trimer (P01375 77-233 limits assumed): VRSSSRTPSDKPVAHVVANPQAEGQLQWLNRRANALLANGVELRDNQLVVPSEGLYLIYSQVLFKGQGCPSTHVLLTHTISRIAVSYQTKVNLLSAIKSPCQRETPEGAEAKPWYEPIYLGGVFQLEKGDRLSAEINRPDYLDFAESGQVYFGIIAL
row,SMILES,IC50
1,Cn1c(=O)c2ccc(-c3cnc(N4CCOCC4)nc3)cc2n1Cc1cccc(F)c1 [Example 1.1],1 to 10 µM
2,Cc1ccc(OC(F)F)c(Cn2c3cc(-c4cnc(N5CCN6C(=O)NC[C@H]6C5)nc4)ccc3c(=O)n2C)n1 [Example 29.6],1 to 10 µM
3,"CN1CC[C@H](Nc2ncc(-c3ccc4c(=O)n(C)n(Cc5cc(CO)ccc5OC(F)F)c4c3)cn2)CC1=O (single isomer, unassigned) [Example 27]",1 to 10 µM
4,Cn1c(=O)c2ccc(-c3cnc(N4CCN5C(=O)NC[C@H]5C4)nc3)cc2n1Cc1cccnc1C(F)(F)F [Example 29.2],1 to 10 µM
5,Cc1cnc(C(F)(F)F)c(Cn2c3cc(-c4cnc(N5CCN6C(=O)NC[C@H]6C5)nc4)ccc3c(=O)n2C)c1 [Example 29.1],1 to 10 µM
6,Cc1ccccc1Cn1c2cc(-c3cnc(N4CCOCC4)nc3)ccc2c(=O)n1C [Example 1.3],1 to 10 µM
7,Cn1c(=O)c2ccc(-c3cnc(N4CCOCC4)cn3)cc2n1Cc1ccccc1OC(F)F [Example 10.2],1 to 10 µM
8,Cn1c(=O)c2ccc(-c3cnc(N4CCOCC4)nc3)cc2n1Cc1cnccc1Cl [Example 1.17],> 10 µM
9,"Cn1c(=O)c2ccc(-c3cnc(C(C)(C)O)nc3)cc2n1Cc1cc([C@H]2CC[C@@H](C#N)C2)ccc1OC(F)F (racemic) [Example 96, rac-(R,3S)-3-(4-(Difluoromethoxy)-3-((6-(2-(2-hydroxypropan-2-yl)pyrimidin-5-yl)-2-methyl-3-oxo-2,3-dihydro-1H-indazol-1-yl)methyl)phenyl)cyclopentane-1-carbonitrile]",1 to 10 µM
10,"Cc1ccc(OC(F)F)c(Cn2c3cc(-c4cnc(N5CCN[C@H](C)C5)nc4)ccc3c(=O)n2C)c1 [Example 14.5, (R)-1-(2-(difluoromethoxy)-5-methylbenzyl)-2-methyl-6-(2-(3-methylpiperazin-1-yl)pyrimidin-5-yl)-1H-indazol-3(2H)-one]",1 to 10 µM
11,CC(=O)N1CCN(c2ncc(-c3ccc4c(=O)n(Cc5ccncc5)n(Cc5ccccc5OC(F)F)c4c3)cn2)C[C@H]1C [Example 27.6],1 to 10 µM
12,Cn1c(=O)c2ccc(-c3cnc(N4CCC(C(=O)O)CC4)cn3)cc2n1Cc1ccccc1OC(F)F [Example 10.3],> 10 µM
13,Cn1c(=O)c2ccc(-c3cnc(N4CCC(C(=O)O)CC4)nc3)cc2n1Cc1cc(Cl)ccc1Cl [Example 7.2],1 to 10 µM
14,Cc1ccc(OC(F)F)c(Cn2c3c(F)c(-c4cnc(C(C)(C)O)nc4)ccc3c(=O)n2C)c1 [Example 26.1],1 to 10 µM
15,Cn1c(=O)c2ccc(-c3cnc(N4CCOCC4)nc3)cc2n1-c1cc(Cl)ccc1Cl [Example 12.1],1 to 10 µM
16,C[C@@H]1CN(c2ncc(-c3c(F)cc4c(=O)n(C)n(Cc5ccccc5OC(F)F)c4c3F)cn2)CCN1C(=O)CO [Example 46],< 1 µM
17,CC(=O)N1CCN(c2ncc(-c3ccc4c(=O)n(C)n(Cc5cc(C)ccc5OC(F)F)c4n3)cn2)C[C@H]1C [Example 18.2],< 1 µM
18,Cn1c(=O)c2ccc(-c3cnc(N4CCOCC4)nc3)cc2n1Cc1nc(Cl)ccc1Cl [Example 1.16],1 to 10 µM
19,"C[C@@H]1CN(c2ncc(-c3ccc4c(=O)n(C)n(Cc5ccccc5Cl)c4c3C#N)cn2)CCN1C(=O)CO [Example 71, (R)-1-(2-Chlorobenzyl)-6-(2-(4-(2-hydroxyacetyl)-3-methylpiperazin-1-yl)pyrimidin-5-yl)-2-methyl-3-oxo-2,3-dihydro-1H-indazole-7-carbonitrile]",1 to 10 µM
20,C[C@@H]1CN(C(=O)CO)CCN1c1ncc(-c2c(F)cc3c(=O)n(C)n(Cc4ccccc4OC(F)F)c3c2F)cn1 [Example 30],< 1 µM
21,Cn1c(=O)c2ccc(-c3cnc(N4CCC(c5nsc(=O)[nH]5)CC4)nc3)cc2n1Cc1ccccc1OC(F)F [Example 2.28],1 to 10 µM
22,Cn1c(=O)c2ccc(-c3cc(N4CCOCC4)ncc3Cl)cc2n1Cc1cccc(F)c1 [Example 3.1],> 10 µM
23,"CC(=O)N1CCN(c2ncc(-c3ccc4c(=O)n(C)n(Cc5nc(CC#N)ccc5C(F)(F)F)c4c3)cn2)C[C@H]1C [Example 61, (R)-2-(6-((6-(2-(4-Acetyl-3-methylpiperazin-1-yl)pyrimidin-5-yl)-2-methyl-3-oxo-2,3-dihydro-1H-indazol-1-yl)methyl)-5-(trifluoromethyl)pyridin-2-yl)acetonitrile]",< 1 µM
24,CC(=O)N1CCN(c2ncc(-c3ccc4c(=O)n(C)n(Cc5cc(C)ccc5OC(F)F)c4c3)cn2)[C@@H](C)C1 [Example 22.2],< 1 µM

# More lines, now with the values ahead:
row,IC50,SMILES
1,< 1 µM,Cn1c(=O)c2ccc(-c3cnc(C(C)(C)O)nc3)cc2n1Cc1cc(Cn2cncn2)ccc1OC(F)F [Example 104]
2,< 1 µM,C[C@@H]1CN(c2ncc(-c3ccc4c(=O)n(C)n(Cc5ccccc5OC(F)F)c4c3)cn2)CCN1C(=O)C(O)CN (stereo partly shown) [Example 14.8]
3,< 1 µM,Cc1ccc(OC(F)F)c(Cn2c3cc(-c4cnc(N5CCOCC5)nc4)ccc3c(=O)n2C)c1 [Example 1.18]
4,< 1 µM,"CC(=O)N1CCN(c2ncc(-c3ccc4c(=O)n(C)n(Cc5cc(CO)ccc5C(F)(F)F)c4c3)cn2)CC1 [Example 115, 6-(2-(4-Acetylpiperazin-1-yl)pyrimidin-5-yl)-1-(5-(hydroxymethyl)-2-(trifluoromethyl)benzyl)-2-methyl-1H-indazol-3(2H)-one]"
5,< 1 µM,Cc1ccc(C(F)(F)F)c(Cn2c3cc(-c4cnc(N5CCN(C(=O)CO)C[C@H]5C)nc4)ccc3c(=O)n2C)n1 [Example 19.5]
6,< 1 µM,"CC(c1c(F)cccc1F)n1c2cc(-c3cnc(N4CCN(C(=O)CO)[C@H](C)C4)nc3)ccc2c(=O)n1C (stereo partly drawn) [Example 28.1, 1-(1-(2,6-Difluorophenyl)ethyl)-6-(2-((R)-4-(2-hydroxyacetyl)-3-methylpiperazin-1-yl)pyrimidin-5-yl)-2-methyl-1H-indazol-3(2H)-one]"
7,< 1 µM,"[2H]C([2H])([2H])n1c(=O)c2ccc(-c3cnc(N4CCN5C(=O)OC[C@H]5C4)nc3)cc2n1Cc1cc(C)ccc1OC(F)F [Example 57, (R)-7-(5-(1-(2-(Difluoromethoxy)-5-methylbenzyl)-2-(methyl-d3)-3-oxo-2,3-dihydro-1H-indazol-6-yl)pyrimidin-2-yl)hexahydro-3H-oxazolo[3,4-a]pyrazin-3-one]"
8,< 1 µM,C[C@@H]1CN(C(=O)CO)CCN1c1ncc(-c2ccc3c(=O)n(C)n(Cc4ccccc4OC(F)F)c3c2)cn1 [Example 10.14]
9,< 1 µM,"Cc1ccc(OC(F)F)c(Cn2c3cc(-c4cnc(N5CCN(S(C)(=O)=O)[C@H](C)C5)nc4)ccc3c(=O)n2C)c1 [Example 24, (R)-1-(2-(Difluoromethoxy)-5-methylbenzyl)-2-methyl-6-(2-(3-methyl-4-(methylsulfonyl)piperazin-1-yl)pyrimidin-5-yl)-1H-indazol-3(2H)-one]"
10,< 1 µM,CC(=O)N1CCN(c2ncc(-c3ccc4c(=O)n(C)n(Cc5ccccc5OC(F)F)c4c3)cn2)[C@H](C)C1 [Example 10.16]
11,< 1 µM,C[C@@H]1CN(c2ncc(-c3ccc4c(=O)n(C)n(Cc5ccccc5Cl)c4n3)cn2)CCN1C(=O)CO [Example 23.1]
12,< 1 µM,"C[C@H](N)C(=O)OCc1ccc(OC(F)F)c(Cn2c3cc(-c4cnc(N5CCN6C(=O)OC[C@@H]6C5)nc4)ccc3c(=O)n2C)c1 [Example 21, (S)-4-(Difluoromethoxy)-3-((2-methyl-3-oxo-6-(2-((S)-3-oxotetrahydro-1H-oxazolo[3,4-a]pyrazin-7(3H)-yl)pyrimidin-5-yl)-2,3-dihydro-1H-indazol-1-yl)methyl)benzyl 2-aminopropanoate]"
13,< 1 µM,CC(=O)N1CCN(c2ncc(-c3ccc4c(=O)n(C)n(Cc5cc(CC#N)ccc5OC(F)F)c4c3)cn2)C[C@H]1C [Example 27.3]
14,< 1 µM,"Cc1ccc(OC(F)F)c(Cn2c3cc(C4=CCC(C(C)(C)O)OC4)c(F)cc3c(=O)n2C)c1 (stereo not shown) [Example #132, 1-(2-(Difluoromethoxy)-5-methylbenzyl)-5-fluoro-6-(6-(2-hydroxypropan-2-yl)-5,6-dihydro-2H-pyran-3-yl)-2-methyl-1H-indazol-3(2H)-one]"
15,< 1 µM,Cn1c(=O)c2ccc(-c3cnc(N4CCN(C(N)=O)CC4)nc3)cc2n1Cc1ccccc1OC(F)F [Example 2.1]
16,< 1 µM,"Cn1c(=O)c2ccc(-c3cnc(N4CCN5C(=O)NC[C@@H]5C4)nc3)cc2n1Cc1cc(CO)ccc1OC(F)F [Example 16.1, (R)-7-(5-(1-(2-(difluoromethoxy)-5-(hydroxymethyl)benzyl)-2-methyl-3-oxo-2,3-dihydro-1H-indazol-6-yl)pyrimidin-2-yl)hexahydroimidazo[1,5-a]pyrazin-3(2H)-one]"
17,< 1 µM,CC(=O)N1CCN(c2ncc(-c3ccc4c(=O)n(C)n(Cc5cc(C)ccc5OC(F)F)c4c3)cn2)[C@H](C)C1 [Example 20.4]
18,< 1 µM,"Cc1ccc(OC(F)F)c(Cn2c3cc(-c4cnc(C5(C)CCNC5)nc4)ccc3c(=O)n2C)c1 (stereo not shown) [Example 87, 1-(2-(Difluoromethoxy)-5-methylbenzyl)-2-methyl-6-(2-(3-methylpyrrolidin-3-yl)pyrimidin-5-yl)-1H-indazol-3(2H)-one]"
19,< 1 µM,CC(c1ccccc1)n1c2cc(-c3cnc(N4CCN(C(=O)CO)[C@H](C)C4)nc3)ccc2c(=O)n1C (stereo partly shown) [Example 28.2]
20,< 1 µM,"C[C@@H]1CN(c2ncc(-c3ccc4c(=O)n(C)n(Cc5ccccc5OC(F)F)c4c3)cn2)CCN1C(=O)[C@H](O)CC(=O)O [Example 50, (R)-4-((R)-4-(5-(1-(2-(Difluoromethoxy)benzyl)-2-methyl-3-oxo-2,3-dihydro-1H-indazol-6-yl)pyrimidin-2-yl)-2-methylpiperazin-1-yl)-3-hydroxy-4-oxobutanoic acid]"
21,< 1 µM,CC(=O)N1CCN(c2ncc(-c3ccc4c(=O)n(C)n(Cc5cc(COc6ccn[nH]6)ccc5OC(F)F)c4c3)cn2)C[C@H]1C [Example 102]
22,< 1 µM,"Cc1ccc(OC(F)F)c(Cn2c3cc(-c4cnc(N5CCN(C(=O)CO)[C@@H](C)C5)nc4)ccc3c(=O)n2C)c1 [Example 36, (S)-1-(2-(Difluoromethoxy)-5-methylbenzyl)-6-(2-(4-(2-hydroxyacetyl)-3-methylpiperazin-1-yl)pyrimidin-5-yl)-2-methyl-1H-indazol-3(2H)-one]"

# From patent US10160748B2 (AbbVie Inc., priority 2015, dated 2018)
